Measured values taken from patent US11613522B2, “Herbicidally active 3-phenylisoxazoline-5-carboxamides of tetrahydro- and dihydrofurancarboxamides” (BAYER AKTIENGESELLSCHAFT, priority 2017, dated 2023).

What was measured:
Format in all cases: in vivo
Alopecurus myosuroides [1] = assay: Pre-emergence herbicidal activity against ALOMY; details: dosage 80 g/ha, scored visually after about 3 weeks vs untreated controls
Method in brief: (§1)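 Pre-emergence pot test: seed → soil cover → spray of WP/EC formulation (aq., 0.5% additive, 600 l/ha) on soil surface → greenhouse ~3 wk → visual % activity vs untreated (100% = dead, 0% = as control).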

Avena fatua [2] = assay: Pre-emergence herbicidal activity against AVEFA; details: dosage 80 g/ha, scored visually after about 3 weeks vs untreated controls
Method in brief: as §1

Echinochloa crus-galli [3] = assay: Pre-emergence herbicidal activity against ECHCG; details: dosage 80 g/ha, scored visually after about 3 weeks vs untreated controls
Source text: (§2) 1. Pre-emergence herbicidal action against harmful plants and crop plant compatibility Seeds of monocotyledonous and dicotyledonous weed plants and crop plants are placed in plastic or wood fiber pots and covered with soil. The compounds of the invention, formulated in the form of wettable powders (WP) or as emulsion concentrates (EC), are then applied onto the surface of the covering soil as aqueous suspension or emulsion with addition of 0.5% additive at a water application rate of 600 l/ha (converted). After the treatment, the pots are placed in a greenhouse and kept under good growth conditions for the trial plants. After about 3 weeks, the effect of the preparations is scored visually in comparison with untreated controls as percentages. For example, 100% activity=the plants have died, 0% activity=like control plants. [table]

Lolium rigidum [4] = assay: Pre-emergence herbicidal activity against LOLRI; details: dosage 80 g/ha, scored visually after about 3 weeks vs untreated controls
Method in brief: as §1

Setaria viridis [5] = assay: Pre-emergence herbicidal activity against SETVI; details: dosage 80 g/ha, scored visually after about 3 weeks vs untreated controls
Method in brief: as §1

Amaranthus retroflexus [6] = assay: Pre-emergence herbicidal activity against AMARE; details: dosage 80 g/ha, scored visually after about 3 weeks vs untreated controls
Method in brief: as §1

Pharbitis purpurea [7] = assay: Pre-emergence herbicidal activity against PHBPU; details: dosage 80 g/ha, scored visually after about 3 weeks vs untreated controls
Source text: as §2

Polygonum convolvulus [8] = assay: Pre-emergence herbicidal activity against POLCO; details: dosage 80 g/ha, scored visually after about 3 weeks vs untreated controls
Method in brief: as §1

Stellaria media [9] = assay: Pre-emergence herbicidal activity against STEME; details: dosage 80 g/ha, scored visually after about 3 weeks vs untreated controls
Method in brief: as §1

Viola tricolor [10] = assay: Pre-emergence herbicidal activity against VIOTR; details: dosage 80 g/ha, scored visually after about 3 weeks vs untreated controls
Method in brief: as §1

Veronica persica [11] = assay: Pre-emergence herbicidal activity against VERPE; details: dosage 80 g/ha
Method in brief: as §1

Hordeum murinum [12] = assay: Pre-emergence herbicidal activity against HORMU; details: dosage 80 g/ha
Method in brief: as §1

Alopecurus myosuroides [13] = assay: Post-emergence herbicidal activity against ALOMY; details: dosage 320 g/ha, rated visually after about 3 weeks
Method in brief: (§3)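 Seeds sown in sandy loam, greenhouse-grown; at one-leaf stage (2–3 wk) sprayed with WP/EC in water + 0.5% additive, 600 l/ha. ~3 wk greenhouse hold, then visual % activity vs untreated (100% = plants dead).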

Avena fatua [14] = assay: Post-emergence herbicidal activity against AVEFA; details: dosage 320 g/ha, rated visually after about 3 weeks
Method in brief: as §3

Echinochloa crus-galli [15] = assay: Post-emergence herbicidal activity against ECHCG; details: dosage 320 g/ha, rated visually after about 3 weeks
Method in brief: as §3

Lolium rigidum [16] = assay: Post-emergence herbicidal activity against LOLRI; details: dosage 320 g/ha, rated visually after about 3 weeks
Method in brief: as §3

Setaria viridis [17] = assay: Post-emergence herbicidal activity against SETVI; details: dosage 320 g/ha, rated visually after about 3 weeks
Method in brief: as §3

Abutilon theophrasti = assay: Post-emergence herbicidal activity against ABUTH; details: dosage 320 g/ha, rated visually after about 3 weeks
Method in brief: as §3

Amaranthus retroflexus [18] = assay: Post-emergence herbicidal activity against AMARE; details: dosage 320 g/ha, rated visually after about 3 weeks
Method in brief: as §3

Pharbitis purpurea [19] = assay: Post-emergence herbicidal activity against PHBPU; details: dosage 320 g/ha, rated visually after about 3 weeks
Method in brief: as §3

Polygonum convolvulus [20] = assay: Post-emergence herbicidal activity against POLCO; details: dosage 320 g/ha, rated visually after about 3 weeks
Method in brief: as §3

Stellaria media [21] = assay: Post-emergence herbicidal activity against STEME; details: dosage 320 g/ha, rated visually after about 3 weeks
Method in brief: as §3

Viola tricolor [22] = assay: Post-emergence herbicidal activity against VIOTR; details: dosage 320 g/ha, rated visually after about 3 weeks
Method in brief: as §3

Veronica persica [23] = assay: Post-emergence herbicidal activity against VERPE; details: dosage 320 g/ha, rated visually after about 3 weeks
Method in brief: as §3

Hordeum murinum [24] = assay: Post-emergence herbicidal activity against HORMU; details: dosage 320 g/ha, rated visually after about 3 weeks
Method in brief: as §3

SMILES | Pre-emergence herbicidal activity in % against ALOMY (Alopecurus myosuroides [1]) [%] | Pre-emergence herbicidal activity in % against AVEVA (AVEFA) (Avena fatua [2]) [%] | Pre-emergence herbicidal activity in % against ECHCG (Echinochloa crus-galli [3]) [%] | Pre-emergence herbicidal activity in % against LOLRI (Lolium rigidum [4]) [%] | Pre-emergence herbicidal activity in % against SETVI (Setaria viridis [5]) [%] | Pre-emergence herbicidal activity in % against AMARE (Amaranthus retroflexus [6]) [%] | Pre-emergence herbicidal activity in % against PHBPU (Pharbitis purpurea [7]) [%] | Pre-emergence herbicidal activity in % against POLCO (Polygonum convolvulus [8]) [%] | Pre-emergence herbicidal activity in % against STEME (Stellaria media [9]) [%] | Pre-emergence herbicidal activity in % against VIOTR (Viola tricolor [10]) [%] | Pre-emergence herbicidal activity in % against VERPE (Veronica persica [11]) [%] | Pre-emergence herbicidal activity in % against HORMU (Hordeum murinum [12]) [%] | Post-emergence herbicidal activity in % against ALOMY (Alopecurus myosuroides [13]) [%] | Post-emergence herbicidal activity in % against AVEFA (Avena fatua [14]) [%] | Post-emergence herbicidal activity in % against ECHCG (Echinochloa crus-galli [15]) [%] | Post-emergence herbicidal activity in % against LOLRI (Lolium rigidum [16]) [%] | Post-emergence herbicidal activity in % against SETVI (Setaria viridis [17]) [%] | Post-emergence herbicidal activity in % against ABUTH (Abutilon theophrasti) [%] | Post-emergence herbicidal activity in % against AMARE (Amaranthus retroflexus [18]) [%] | Post-emergence herbicidal activity in % against PHBPU (Pharbitis purpurea [19]) [%] | also measured
CONC(=O)[C@@H]1C[C@H](NC(=O)[C@@]2(C)CC(c3cc(F)cc(F)c3)=NO2)CO1 [Example I-24] | 100 | 100 | 90 | 100 | 100 | 100 | 90 | 90 | 90 | 90 | 90 | 100 | 100 | 100 | 100 | 100 | 80 | 80 | 80 | 90 | Post-emergence herbicidal activity in % against POLCO (Polygonum convolvulus [20]): 80%; Post-emergence herbicidal activity in % against STEME (Stellaria media [21]): 100%; Post-emergence herbicidal activity in % against VIOTR (Viola tricolor [22]): 90%; Post-emergence herbicidal activity in % against VERPE (Veronica persica [23]): 80%; Post-emergence herbicidal activity in % against HORMU (Hordeum murinum [24]): 100%
C=C[C@]1(C(=O)N[C@@H]2CO[C@H](C(=O)NCC(=O)OC)C2)CC(c2cc(F)cc(F)c2)=NO1 [Example I-21] | 100 | 100 | 100 | 100 | 100 | 100 | 90 | 100 | 90 | 100 | 90 | 90 | 90 | 100 | 90 | 90 | 90 | 90 | 90 | 90 | Post-emergence herbicidal activity in % against POLCO (Polygonum convolvulus [20]): 90%; Post-emergence herbicidal activity in % against STEME (Stellaria media [21]): 90%; Post-emergence herbicidal activity in % against VIOTR (Viola tricolor [22]): 90%; Post-emergence herbicidal activity in % against VERPE (Veronica persica [23]): 80%; Post-emergence herbicidal activity in % against HORMU (Hordeum murinum [24]): 100%
C[C@]1(C(=O)N[C@@H]2CO[C@H](C(=O)NS(C)(=O)=O)C2)CC(c2cc(F)cc(F)c2)=NO1 [Example I-23] | 100 | 100 | 100 | 100 | 100 | 100 | 90 | 100 | 100 | 90 | 90 | 90 | 90 | 100 | 90 | 100 | 80 | 80 | 80 | 80 | Post-emergence herbicidal activity in % against POLCO (Polygonum convolvulus [20]): 90%; Post-emergence herbicidal activity in % against STEME (Stellaria media [21]): 90%; Post-emergence herbicidal activity in % against VIOTR (Viola tricolor [22]): 80%; Post-emergence herbicidal activity in % against VERPE (Veronica persica [23]): 80%; Post-emergence herbicidal activity in % against HORMU (Hordeum murinum [24]): 100%
